In paper PMC7284125, “Identification of annotated bioactive molecules that impair motility of the blood fluke Schistosoma mansoni” (International Journal for Parasitology: Drugs and Drug …, 2020):

Each compound was assayed on S. mansoni schistosomulae (assay: Motility assay on schistosomulae (pixel displacement, relative to DMSO control)). Conditions: Schistosoma mansoni, 120 h; schistosomulae, secondary screen, 24h exposure, read at D5, 1 µM; read-out: Fractional motility.
Type: cell-based, Schistosoma mansoni
Experimental: Puerto Rican strain Biomphalaria glabrata snails infected with S. mansoni were kindly provided by Dr. Fred Lewis (Biomedical Research Institute and BEI Resources, MD, USA). Schistosomulae were obtained by exposing six to eight weeks-old snails to continuous light for 2 h at 32 °C. The resulting suspension of cercaria was then mechanically transformed as described ([Lewis, 2001]) and cultured in Opti-MEM/antibiotics (Thermo Fisher Scientific, Waltham, MA) containing 100 μg/mL streptomycin and 100 units/ml penicillin supplemented with 5% fetal bovine serum (FBS; Thermo Fisher). Parasite cultures were incubated at 37 °C with 5% CO2 for at least 10 days with no apparent loss of viability. At this point, animals with internal dark granulations and with no observable body contraction/relaxation cycles were considered dead.
(§1) Schistosomulae (200/well) and adult parasites (unpaired worms) were maintained in 300 μL OPTI-MEM with 5% dialyzed FBS (without antibiotics) and exposed to compounds at 1 and 10 μM for 24 h. A kinetic assay consisting of 1, 3, 6 and 12 h incubation times was performed on selected hits by motility monitoring using a stereo microscope (SMZ1270, Nikon) for adults and an inverted microscope for schistosomulae (eclipse TE2000-U, Nikon) connected to a monochrome camera (DS-Qi2, Nikon) for image acquisition. Images were recorded at a rate of 10 frames/s for a period of 1 min and videos were analyzed using ImageJ software (version 1.41, NIH, USA). Parasite movement quantification and data analysis protocols were applied using the pixel displacement method ([Patocka et al., 2014]; [Rashid et al., 2015]) and compared to control parasites treated with DMSO. Parasites were then washed several times in Opti-MEM, 5% FBS and incubated up to an additional three days (schistosomulae) or five days (adult worms) at 37 °C, 5% CO2 and motility was recorded as described above.

Compound | activity at 1 µM [%]
CCN(CC)CCOc1ccc(C(=C(Cl)c2ccccc2)c2ccccc2)cc1 [Clomifene] | 49
CCCCc1oc2ccccc2c1C(=O)c1cc(I)c(OCCN(CC)CC)c(I)c1 [Amiodarone] | 78

Same assay, conditions: Schistosoma mansoni; schistosomulae, secondary screen, 24h exposure, read at D1, 1 µM; read-out: Fractional motility

Compound | activity at 1 µM [%]
CCN(CC)CCOc1ccc(C(=C(Cl)c2ccccc2)c2ccccc2)cc1 [Clomifene] | 12
CCCCc1oc2ccccc2c1C(=O)c1cc(I)c(OCCN(CC)CC)c(I)c1 [Amiodarone] | -11

Same assay, conditions: schistosomulae, 1h exposure, read at D1, 10 µM

Fractional motility | Compound
0.71 | CC(=O)c1cc([N+](=O)[O-])c(Sc2ccc(F)cc2F)s1 [P22077]
9.63 | c1cc(-c2cnn3cc(-c4ccc(N5CCNCC5)cc4)cnc23)c2cccnc2c1 [LDN-212854]

Same assay, conditions: schistosomulae, 1h exposure, read at D5, 10 µM

Fractional motility | Compound
0.10 | CC(=O)c1cc([N+](=O)[O-])c(Sc2ccc(F)cc2F)s1 [P22077]
-0.87 | c1cc(-c2cnn3cc(-c4ccc(N5CCNCC5)cc4)cnc23)c2cccnc2c1 [LDN-212854]

Same assay, conditions: schistosomulae, 3h exposure, read at D1, 10 µM

Fractional motility | Compound
3.24 | CC(=O)c1cc([N+](=O)[O-])c(Sc2ccc(F)cc2F)s1 [P22077]
-0.97 | c1cc(-c2cnn3cc(-c4ccc(N5CCNCC5)cc4)cnc23)c2cccnc2c1 [LDN-212854]

Same assay, conditions: schistosomulae, 3h exposure, read at D5, 10 µM

Fractional motility | Compound
-0.09 | CC(=O)c1cc([N+](=O)[O-])c(Sc2ccc(F)cc2F)s1 [P22077]
-0.97 | c1cc(-c2cnn3cc(-c4ccc(N5CCNCC5)cc4)cnc23)c2cccnc2c1 [LDN-212854]

Same assay, conditions: schistosomulae, 6h exposure, read at D1, 10 µM

Fractional motility | Compound
10.22 | CC(=O)c1cc([N+](=O)[O-])c(Sc2ccc(F)cc2F)s1 [P22077]
-0.98 | c1cc(-c2cnn3cc(-c4ccc(N5CCNCC5)cc4)cnc23)c2cccnc2c1 [LDN-212854]

Same assay, conditions: schistosomulae, 6h exposure, read at D5, 10 µM

Fractional motility | Compound
-0.30 | CC(=O)c1cc([N+](=O)[O-])c(Sc2ccc(F)cc2F)s1 [P22077]
-0.92 | c1cc(-c2cnn3cc(-c4ccc(N5CCNCC5)cc4)cnc23)c2cccnc2c1 [LDN-212854]

Same assay, conditions: schistosomulae, secondary screen, 24h exposure, read at D1, 1 µM

Fractional motility | Compound
-0.36 | CC(=O)c1cc([N+](=O)[O-])c(Sc2ccc(F)cc2F)s1 [P22077]
3.02 | c1cc(-c2cnn3cc(-c4ccc(N5CCNCC5)cc4)cnc23)c2cccnc2c1 [LDN-212854]

Same assay, conditions: schistosomulae, secondary screen, 24h exposure, read at D1, 10 µM

Compound | Fractional motility
CCN(CC)CCOc1ccc(C(=C(Cl)c2ccccc2)c2ccccc2)cc1 [Clomifene] | 1.47
CC(=O)c1cc([N+](=O)[O-])c(Sc2ccc(F)cc2F)s1 [P22077] | 2.27
CCCCc1oc2ccccc2c1C(=O)c1cc(I)c(OCCN(CC)CC)c(I)c1 [Amiodarone] | -0.80
c1cc(-c2cnn3cc(-c4ccc(N5CCNCC5)cc4)cnc23)c2cccnc2c1 [LDN-212854] | 11.26

Same assay, conditions: schistosomulae, secondary screen, 24h exposure, read at D5, 1 µM

Fractional motility | Compound
-0.61 | CC(=O)c1cc([N+](=O)[O-])c(Sc2ccc(F)cc2F)s1 [P22077]
-0.46 | c1cc(-c2cnn3cc(-c4ccc(N5CCNCC5)cc4)cnc23)c2cccnc2c1 [LDN-212854]

Same assay, conditions: schistosomulae, secondary screen, 24h exposure, read at D5, 10 µM

Compound | Fractional motility
CCN(CC)CCOc1ccc(C(=C(Cl)c2ccccc2)c2ccccc2)cc1 [Clomifene] | 0.15
CC(=O)c1cc([N+](=O)[O-])c(Sc2ccc(F)cc2F)s1 [P22077] | -0.98
CCCCc1oc2ccccc2c1C(=O)c1cc(I)c(OCCN(CC)CC)c(I)c1 [Amiodarone] | -0.98
c1cc(-c2cnn3cc(-c4ccc(N5CCNCC5)cc4)cnc23)c2cccnc2c1 [LDN-212854] | -0.80

Same assay, conditions: three-day old schistosomulae, incubation 1 h, 3 h, 6 h

motility in extended assay with reduced incubation times, in words | Compound
significant and sustained hypomotility | c1cc(-c2cnn3cc(-c4ccc(N5CCNCC5)cc4)cnc23)c2cccnc2c1 [LDN-212854]

The compounds below were run on S. mansoni schistosomulae (assay: Phenotypic primary screen assay on schistosomulae (phenotype; viability by methylene blue dye exclusion)). Conditions: three-day-old schistosomulae, 10 μM, 24 h; calculated 5 days post compound exposure.
Type: cell-based, Schistosoma mansoni
Experimental: Puerto Rican strain Biomphalaria glabrata snails infected with S. mansoni were kindly provided by Dr. Fred Lewis (Biomedical Research Institute and BEI Resources, MD, USA). Schistosomulae were obtained by exposing six to eight weeks-old snails to continuous light for 2 h at 32 °C. […] At this point, animals with internal dark granulations and with no observable body contraction/relaxation cycles were considered dead.
Schistosomulae were monitored under a stereo microscope (SMZ1270, Nikon). Phenotypic observations were made by analyzing schistosomulae, 24 h after drug addition to assess any immediate effect and five days post-compound exposure to observe long-term impacts on both the movement and overall body shape in comparison to control animals exposed to DMSO only.

Compound | Viability (%)
CC(=O)c1cc([N+](=O)[O-])c(Sc2ccc(F)cc2F)s1 [P22077] | 5
c1cc(-c2cnn3cc(-c4ccc(N5CCNCC5)cc4)cnc23)c2cccnc2c1 [LDN-212854] | 0

Same assay, conditions: three-day-old schistosomulae, 10 μM, 24 h; estimated 5 days post compound exposure

Compound | Phenotype
CCN(CC)CCOc1ccc(C(=C(Cl)c2ccccc2)c2ccccc2)cc1 [Clomifene] | big, granulated
CC(=O)c1cc([N+](=O)[O-])c(Sc2ccc(F)cc2F)s1 [P22077] | dark, granulated
CCCCc1oc2ccccc2c1C(=O)c1cc(I)c(OCCN(CC)CC)c(I)c1 [Amiodarone] | big, granulated
c1cc(-c2cnn3cc(-c4ccc(N5CCNCC5)cc4)cnc23)c2cccnc2c1 [LDN-212854] | dark, granulated

Each compound was assayed on S. mansoni adult worms (assay: Motility assay on adult parasites (pixel displacement, relative to DMSO control)). Conditions: adults, 10 μM, long-term after washout.
Type: cell-based, Schistosoma mansoni
Experimental: Adult parasites were collected from 40 day-old female CD1 mice (Charles River) previously inoculated by the tail infection method ([Lewis, 2001]). Six weeks post-infection, mice were sacrificed, and adult worms extracted after perfusion of in the hepatic portal vein and mesenteric venules ([Lewis, 2001]). Animal procedures were reviewed and approved by the Facility Animal Care Committee of McGill University (Protocol No. 3346) and were conducted in accordance with the guidelines of the Canadian Council on Animal Care.
as §1

motility phenotype in words | Compound
severely paralyzed adults | CC(=O)c1cc([N+](=O)[O-])c(Sc2ccc(F)cc2F)s1 [P22077]
Significant hypomotility | c1cc(-c2cnn3cc(-c4ccc(N5CCNCC5)cc4)cnc23)c2cccnc2c1 [LDN-212854]

Same assay, conditions: secondary screen, 10 μM, D1, Female adult worms

Compound | Fractional motility
CCN(CC)CCOc1ccc(C(=C(Cl)c2ccccc2)c2ccccc2)cc1 [Clomifene] | -0.44
CC(=O)c1cc([N+](=O)[O-])c(Sc2ccc(F)cc2F)s1 [P22077] | -0.33
CCCCc1oc2ccccc2c1C(=O)c1cc(I)c(OCCN(CC)CC)c(I)c1 [Amiodarone] | -0.67
c1cc(-c2cnn3cc(-c4ccc(N5CCNCC5)cc4)cnc23)c2cccnc2c1 [LDN-212854] | 0.29

Same assay, conditions: secondary screen, 10 μM, D1, Male adult worms

Fractional motility | Compound
-0.12 | CC(=O)c1cc([N+](=O)[O-])c(Sc2ccc(F)cc2F)s1 [P22077]
0.78 | c1cc(-c2cnn3cc(-c4ccc(N5CCNCC5)cc4)cnc23)c2cccnc2c1 [LDN-212854]

Compound | Fractional motility
CCCCc1oc2ccccc2c1C(=O)c1cc(I)c(OCCN(CC)CC)c(I)c1 [Amiodarone] | -0.41

Same assay, conditions: secondary screen, 10 μM, D5, Female adult worms

Compound | Fractional motility
CCN(CC)CCOc1ccc(C(=C(Cl)c2ccccc2)c2ccccc2)cc1 [Clomifene] | -0.03
CC(=O)c1cc([N+](=O)[O-])c(Sc2ccc(F)cc2F)s1 [P22077] | -0.88
CCCCc1oc2ccccc2c1C(=O)c1cc(I)c(OCCN(CC)CC)c(I)c1 [Amiodarone] | -0.58
c1cc(-c2cnn3cc(-c4ccc(N5CCNCC5)cc4)cnc23)c2cccnc2c1 [LDN-212854] | -0.84

Same assay, conditions: secondary screen, 10 μM, D5, Male adult worms

Compound | Fractional motility
CCN(CC)CCOc1ccc(C(=C(Cl)c2ccccc2)c2ccccc2)cc1 [Clomifene] | -0.17
CC(=O)c1cc([N+](=O)[O-])c(Sc2ccc(F)cc2F)s1 [P22077] | -0.79
CCCCc1oc2ccccc2c1C(=O)c1cc(I)c(OCCN(CC)CC)c(I)c1 [Amiodarone] | -0.38
c1cc(-c2cnn3cc(-c4ccc(N5CCNCC5)cc4)cnc23)c2cccnc2c1 [LDN-212854] | -0.87

The compounds below were run on S. mansoni schistosomulae (assay: Phenotypic primary screen assay on schistosomulae (phenotype; viability by methylene blue dye exclusion)). Conditions: Schistosoma mansoni; three-day-old schistosomulae, 10 μM, 24 h; calculated 5 days post compound exposure; read-out: Viability (%).
Type: cell-based

Compound | viability at 10 µM [%]
CCN(CC)CCOc1ccc(C(=C(Cl)c2ccccc2)c2ccccc2)cc1 [Clomifene] | 100
